Experimental findings from BindingDB's records for doi:10.1016/j.bmc.2018.08.021 (Zhengzhou University, 2018) are described below.

Data set [1] can be described thus: Inhibition of ABCB1 in human SW620/Ad300 cells assessed as potentiation of cisplatin-induced cytotoxicity by measuring cisplatin IC50 at 4 uM after 72 hrs by MTT assay (Rvb = 0.61 +/- 0.03 microM). Background: Tetrazolium dyes change colour on reduction, which living cells bring about.
Data set [2] can be described thus: Inhibition of ABCB1 in human SW620/Ad300 cells assessed as potentiation of cisplatin-induced cytotoxicity by measuring cisplatin IC50 at 10 uM after 72 hrs by MTT assay (Rvb = 0.61 +/- 0.03 microM).
Data set [3] can be described thus: Inhibition of ABCB1 in human SW620/Ad300 cells assessed as potentiation of cisplatin-induced cytotoxicity by measuring cisplatin IC50 at 20 uM after 72 hrs by MTT assay (Rvb = 0.61 +/- 0.03 microM).
The nature of data set [4]: Inhibition of ABCB1 in human SW620/Ad300 cells assessed as potentiation of paclitaxel-induced cytotoxicity by measuring paclitaxel IC50 at 4 uM after 72 hrs by MTT assay (Rvb = 3.39 +/- 0.84 microM).
Data set [5] can be described thus: Inhibition of ABCB1 in human SW620/Ad300 cells assessed as potentiation of paclitaxel-induced cytotoxicity by measuring paclitaxel IC50 at 10 uM after 72 hrs by MTT assay (Rvb = 3.39 +/- 0.84 microM).
A short description of data set [6]: Inhibition of ABCB1 in human SW620/Ad300 cells assessed as potentiation of paclitaxel-induced cytotoxicity by measuring paclitaxel IC50 at 20 uM after 72 hrs by MTT assay (Rvb = 3.39 +/- 0.84 microM).
Data set [7] in a line: Inhibition of ABCB1 in human SW620/Ad300 cells assessed as potentiation of doxorubicin-induced cytotoxicity by measuring doxorubicin IC50 at 4 uM after 72 hrs by MTT assay (Rvb = 6.15 +/- 0.63 microM).
Data set [8] in a line: Inhibition of ABCB1 in human SW620/Ad300 cells assessed as potentiation of doxorubicin-induced cytotoxicity by measuring doxorubicin IC50 at 10 uM after 72 hrs by MTT assay (Rvb = 6.15 +/- 0.63 microM).
The nature of data set [9]: Inhibition of ABCB1 in human SW620/Ad300 cells assessed as potentiation of doxorubicin-induced cytotoxicity by measuring doxorubicin IC50 at 20 uM after 72 hrs by MTT assay (Rvb = 6.15 +/- 0.63 microM).
A short description of data set [10]: Inhibition of ABCB1 (unknown origin) expressed in HEK293T cells assessed as potentiation of cisplatin-induced cytotoxicity by measuring cisplatin IC50 at 4 uM after 72 hrs by MTT assay (Rvb = 7.22 +/- 0.45 microM).
Data set [11] in a line: Inhibition of ABCB1 (unknown origin) expressed in HEK293T cells assessed as potentiation of cisplatin-induced cytotoxicity by measuring cisplatin IC50 at 10 uM after 72 hrs by MTT assay (Rvb = 7.22 +/- 0.45 microM).
A short description of data set [12]: Inhibition of ABCB1 (unknown origin) expressed in HEK293T cells assessed as potentiation of cisplatin-induced cytotoxicity by measuring cisplatin IC50 at 20 uM after 72 hrs by MTT assay (Rvb = 7.22 +/- 0.45 microM).
The nature of data set [13]: Inhibition of ABCB1 (unknown origin) expressed in HEK293T cells assessed as potentiation of paclitaxel-induced cytotoxicity by measuring paclitaxel IC50 at 4 uM after 72 hrs by MTT assay (Rvb = 0.09 +/- 0.02 microM).
Data set [14] in a line: Inhibition of ABCB1 (unknown origin) expressed in HEK293T cells assessed as potentiation of paclitaxel-induced cytotoxicity by measuring paclitaxel IC50 at 10 uM after 72 hrs by MTT assay (Rvb = 0.09 +/- 0.02 microM).
Data set [15] is described as follows: Inhibition of ABCB1 (unknown origin) expressed in HEK293T cells assessed as potentiation of paclitaxel-induced cytotoxicity by measuring paclitaxel IC50 at 20 uM after 72 hrs by MTT assay (Rvb = 0.09 +/- 0.02 microM).
The nature of data set [16]: Inhibition of ABCB1 (unknown origin) expressed in HEK293T cells assessed as potentiation of doxorubicin-induced cytotoxicity by measuring doxorubicin IC50 at 4 uM after 72 hrs by MTT assay (Rvb = 1.17 +/- 0.09 microM).
Data set [17] in a line: Inhibition of ABCB1 (unknown origin) expressed in HEK293T cells assessed as potentiation of doxorubicin-induced cytotoxicity by measuring doxorubicin IC50 at 10 uM after 72 hrs by MTT assay (Rvb = 1.17 +/- 0.09 microM).
Data set [18] in a line: Inhibition of ABCB1 (unknown origin) expressed in HEK293T cells assessed as potentiation of doxorubicin-induced cytotoxicity by measuring doxorubicin IC50 at 20 uM after 72 hrs by MTT assay (Rvb = 1.17 +/- 0.09 microM).

With `O=c1cc(-c2ccccc2)[nH]c2nc(SCc3nc4ccccc4[nH]3)nn12`, the IC50 turned out to be 1590 nM in data set [1]; 1550 nM in data set [2]; 1640 nM in data set [3]; 830 nM in [4]; 1470 nM in [5]; 660 nM in [6]. Further, the IC50 in data set [7] came to 920 nM; in data set [8] it was 1280 nM; in data set [9], 800 nM; in data set [10] it was 7.1 µM; in data set [11], 8.26 µM; in data set [12] it was 7.16 µM. The IC50 in [13] stood at 30 nM; in [14] it was 50 nM; in data set [15], 40 nM; in [16], 290 nM; in [17] it was 380 nM; in [18] it was 290 nM.

What is called IC50 is the concentration that gives 50% inhibition.
